ChEMBL document CHEMBL6087460, “Generating a Peptide Library Using the Repeats of Amino Acid Scaffolds Created by Sliding the Framework of a 7-mer Human Chemerin Segment and Discovery of Potent Antibacterial and Antimycobacterial Peptides” (J Med Chem, 2025)
Values after ≈ are worked out from the molar mass of the structure shown. Active and inactive are the calls of the source. The calls are words filed in the database; no cut-off is given here. Where a SMILES comes first, the peptide text is derived from it.

Assays:
[1] = Drug localization in cell membrane of Escherichia coli ATCC 25922 at 3 times MIC by confocal microscopy; format: ADME, cell membranes
Escherichia coli [2] = experiment: Antibacterial activity against Escherichia coli ATCC 25922 incubated for 16 to 18 hrs by broth dilution assay; format: functional; conditions: time 16-18 hrs
Klebsiella pneumoniae = experiment: Antibacterial activity against Klebsiella pneumoniae ATCC 27736 incubated for 16 to 18 hrs by broth dilution assay; format: functional; conditions: time 16-18 hrs
Pseudomonas aeruginosa = experiment: Antibacterial activity against Pseudomonas aeruginosa ATCC BAA-427 incubated for 16 to 18 hrs by broth dilution assay; format: functional; conditions: time 16-18 hrs
Staphylococcus aureus [3] = experiment: Antibacterial activity against Staphylococcus aureus ATCC 25923 incubated for 16 to 18 hrs by broth dilution assay; format: functional; conditions: time 16-18 hrs
Bacillus subtilis = experiment: Antibacterial activity against Bacillus subtilis 6633 incubated for 16 to 18 hrs by broth dilution assay; format: functional; conditions: time 16-18 hrs
Staphylococcus aureus [4] = experiment: Antibacterial activity against methicillin-resistant Staphylococcus aureus 33591 incubated for 16 to 18 hrs by broth dilution assay; format: functional; conditions: time 16-18 hrs
Staphylococcus aureus [5] = experiment: Antibacterial activity against methicillin-resistant Staphylococcus aureus BAA-44 incubated for 16 to 18 hrs by broth dilution assay; format: functional; conditions: time 16-18 hrs
Escherichia coli [6] = experiment: Induction of resistance development in Escherichia coli ATCC 25922 assessed as fold increase in MIC at sub-MIC measured after 30 passages relative to control; format: functional
Staphylococcus aureus [7] = experiment: Induction of resistance development in Staphylococcus aureus ATCC 25923 assessed as fold increase in MIC at sub-MIC measured after 30 passages relative to control; format: functional
Staphylococcus aureus [8] = experiment: Induction of resistance development in methicillin-resistant Staphylococcus aureus 33591 assessed as fold increase in MIC at sub-MIC measured after 30 passages relative to control; format: functional
Staphylococcus aureus [9] = experiment: Induction of resistance development in methicillin-resistant Staphylococcus aureus BAA-44 assessed as fold increase in MIC at sub-MIC measured after 30 passages relative to control; format: functional
[10] = tested on: Mycolicibacterium smegmatis; experiment: Antitubercular activity against Mycobacterium smegmatis incubated for 24 hrs by rezasurin dye based assay; format: functional
[11] = Retention time of compound by RP-HPLC method; format: physicochemical
[12] = Hemolytic activity in human RBC measured after 40 mins by absorbance based assay; format: toxicity, cell-based, Erythrocyte; conditions: human red blood cells
Escherichia coli [13] = experiment: Bactericidal activity against Escherichia coli ATCC 25922 incubated for 16 to 18 hrs; format: functional; conditions: time 16-18 hrs
Escherichia coli [14] = experiment: Antibacterial activity against Escherichia coli ATCC 25922 incubated for 16 to 18 hrs in presence of 10 percent human serum by broth dilution assay; format: functional; conditions: time 16-18 hrs
Staphylococcus aureus [15] = experiment: Bactericidal activity against Staphylococcus aureus ATCC 25923 incubated for 16 to 18 hrs; format: functional; conditions: time 16-18 hrs
Staphylococcus aureus [16] = experiment: Antibacterial activity against Staphylococcus aureus ATCC 25923 incubated for 16 to 18 hrs in presence of 10 percent human serum by broth dilution assay; format: functional; conditions: time 16-18 hrs
[17] = Cytotoxicity against mouse 3T3-L1 cells assessed as cell viability at 100 uM incubated for 24 hrs by MTT assay relative to control; format: toxicity, cell-based; conditions: 3T3-L1 cells, read-out: Activity
[18] = Cytotoxicity against rat L6 cells assessed as cell viability at 100 uM incubated for 24 hrs by MTT assay relative to control; format: toxicity, cell-based; conditions: L6 cells, read-out: Activity
Escherichia coli [19] = experiment: Bactericidal activity against Escherichia coli ATCC 25922 at MIC incubated for 45 mins by time kill assay; format: functional, organism-based
Staphylococcus aureus [20] = experiment: Bactericidal activity against Staphylococcus aureus ATCC 25923 at MIC incubated for 45 mins by time kill assay; format: functional, organism-based
Escherichia coli [21] = experiment: Induction of membrane depolarization in Escherichia coli ATCC 25922 by diSC3-5 dye based analysis; format: functional, organism-based
Staphylococcus aureus [22] = experiment: Induction of membrane depolarization in Staphylococcus aureus ATCC 25923 by diSC3-5 dye based analysis; format: functional, organism-based
Escherichia coli [23] = experiment: Disruption of plasma membrane integrity in Escherichia coli ATCC 25922 by SYTOX-Green uptake assay; format: functional, organism-based
Staphylococcus aureus [24] = experiment: Disruption of plasma membrane integrity in Staphylococcus aureus ATCC 25923 by SYTOX-Green uptake assay; format: functional, organism-based
Escherichia coli [25] = experiment: Disruption of membrane integrity in Escherichia coli ATCC 25922 by PI staining based analysis; format: functional, organism-based
Staphylococcus aureus [26] = experiment: Disruption of membrane integrity in Staphylococcus aureus ATCC 25923 by PI staining based analysis; format: functional, organism-based
[27] = Hemolytic activity in human RBC assessed as disruption of membrane integrity by Alexa Fluor-Annexin V staining based analysis; format: toxicity, cell-based; conditions: erythrocyte
[28] = Hemolytic activity in human RBC at 100 uM measured after 40 mins by absorbance based assay relative to control; format: toxicity, cell-based, Erythrocyte; conditions: for hemolysis at 40 min, 100 µM: human red blood cells, read-out: Activity
[29] = Stability in 10 percent human serum assessed as compound remaining measured after 60 mins by RP-HPLC analysis; format: ADME, cell-free; conditions: 10% human serum, read-out: Stability
Escherichia coli [30] = experiment: Bactericidal activity against Escherichia coli ATCC 25922 at MIC incubated for 60 mins by time kill assay; format: functional, organism-based
Staphylococcus aureus [31] = experiment: Bactericidal activity against Staphylococcus aureus ATCC 25923 at MIC incubated for 60 mins by time kill assay; format: functional, organism-based
Escherichia coli [32] = experiment: Induction of cell membrane damage in Escherichia coli ATCC 25922 at 3 times MIC incubated for 60 mins by SEM analysis; format: functional, organism-based
Staphylococcus aureus [33] = experiment: Induction of cell membrane damage in Staphylococcus aureus ATCC 25923 at 3 times MIC incubated for 60 mins by SEM analysis; format: functional, organism-based

Row | Compound | MIC (Escherichia coli [2]) [µM] | MIC (Klebsiella pneumoniae) [µM] | MIC (Pseudomonas aeruginosa) [µM] | MIC (Staphylococcus aureus [3]) [µM] | MIC (Bacillus subtilis) [µM] | MIC (Staphylococcus aureus [4]) [µM] | MIC (Staphylococcus aureus [5]) [µM] | MIC [10] [µM] | Retention_time [11] [min] | HC50 at 40 min [12] [mM] | MBC (Escherichia coli [13]) [µM] | MIC (Escherichia coli [14]) [µM] | MBC (Staphylococcus aureus [15]) [µM] | MIC (Staphylococcus aureus [16]) [µM] | viability at 24 h, 100 µM [17] [%] | viability at 24 h, 100 µM [18] [%] | Activity (Escherichia coli [21]) | Activity (Staphylococcus aureus [22]) | Activity (Escherichia coli [23]) | Activity (Staphylococcus aureus [24]) | other results
1 | CC(C)C[C@H](NC(=O)[C@H](CCCNC(=N)N)NC(=O)[C@@H](NC(=O)[C@H](CC(C)C)NC(=O)[C@H](CCCNC(=N)N)NC(=O)[C@@H](NC(=O)[C@H](CC(C)C)NC(=O)[C@H](CCCNC(=N)N)NC(=O)[C@@H](NC(=O)[C@H](CC(C)C)NC(=O)[C@H](CCCNC(=N)N)NC(=O)c1cc(C(=O)O)ccc1-c1c2ccc(=[N+](C)C)cc-2oc2cc(N(C)C)ccc12)C(C)C)C(C)C)C(C)C)C(=O)N[C@H](C(=O)O)C(C)C.[Cl-] (HELM PEPTIDE1{[CN(C)c1ccc2c(-c3ccc(C(=O)O)cc3C(=O)[*:2])c3ccc(=[N+](C)C)cc-3oc2c1].R.L.V.R.L.V.R.L.V.R.L.V}$$$$V2.0) | – | – | – | – | – | – | – | – | – | – | – | – | – | – | – | – | – | – | – | – | Drug uptake [1]: Active
2 | O=C(O)c1cn(C2CC2)c2cc(N3CCNCC3)c(F)cc2c1=O [CIPROFLOXACIN] | 0.1 (≈ 0.0331 µg/mL) | 0.1 (≈ 0.0331 µg/mL) | 6.3 (≈ 2.09 µg/mL) | 6.3 (≈ 2.09 µg/mL) | 6.3 (≈ 2.09 µg/mL) | 6.3 (≈ 2.09 µg/mL) | 6.3 (≈ 2.09 µg/mL) | – | – | – | – | – | – | – | – | – | – | – | – | – | fold change (FC) (Escherichia coli [6]): 128; fold change (FC) (Staphylococcus aureus [7]): 128; fold change (FC) (Staphylococcus aureus [8]): 128; fold change (FC) (Staphylococcus aureus [9]): 128
3 | CO[C@H]1/C=C/O[C@@]2(C)Oc3c(C)c(O)c4c(O)c(c(/C=N/N5CCN(C)CC5)c(O)c4c3C2=O)NC(=O)/C(C)=C\C=C\[C@H](C)[C@H](O)[C@@H](C)[C@@H](O)[C@@H](C)[C@H](OC(C)=O)[C@@H]1C [RIFAMPIN] | – | – | – | – | – | – | – | 0.25 (≈ 0.206 µg/mL) | – | – | – | – | – | – | – | – | – | – | – | – | –
4 | CN(C)[C@@H]1C(O)=C(C(N)=O)C(=O)[C@@]2(O)C(O)=C3C(=O)c4c(O)cccc4[C@@](C)(O)[C@H]3C[C@@H]12 [TETRACYCLINE] | 3.1 (≈ 1.38 µg/mL) | 3.1 (≈ 1.38 µg/mL) | 50 (≈ 22.2 µg/mL) | 3.1 (≈ 1.38 µg/mL) | 1.6 (≈ 0.711 µg/mL) | 100 (≈ 44.4 µg/mL) | 100 (≈ 44.4 µg/mL) | – | – | – | – | – | – | – | – | – | – | – | – | – | fold change (FC) (Escherichia coli [6]): 32; fold change (FC) (Staphylococcus aureus [7]): 64; fold change (FC) (Staphylococcus aureus [8]): <=64; fold change (FC) (Staphylococcus aureus [9]): 128
5 | H-KVLGKVLGKVLGKVLG-OH | 3.9 | 7.8 | 15.6 | 7.8 | 15.6 | 7.8 | 3.9 | > 10 | 20.12 | 2 | 3.9 | 3.9 | 12.6 | 12.6 | 75 | 75 | Active | Active | Active | Active | Activity (Escherichia coli [19]): Active; Activity (Staphylococcus aureus [20]): Active; Activity (Escherichia coli [25]): Active; Activity (Staphylococcus aureus [26]): Active; Activity [27]: Non-toxic
6 | H-KVLKVLKVLKVLKVL-OH | 1.8 | 3.6 | 14.5 | 3.6 | 3.6 | 3.6 | 3.6 | – | 20.77 | 0.256 | – | – | – | – | – | – | – | – | – | – | hemolysis at 40 min, 100 µM [28]: 20%; remaining at 1 h [29]: 65%
7 | H-LGRLLGRLLGRL-OH | 9.4 | 37.4 | 37.4 | 9.4 | 9.4 | 9.4 | 4.7 | 5 | 15.4 | 2 | 18.2 | 18.2 | 18.2 | 18.2 | > 80 | > 80 | Active | Active | Active | Active | Activity ([28]; erythrocyte, 40 min, 100 µM): Non-toxic; Activity (Escherichia coli [30]): Active; Exhibited Rapid Kinetics; Activity (Staphylococcus aureus [31]): Active; Exhibited Rapid Kinetics; Activity (Escherichia coli [25]): Active; Activity (Staphylococcus aureus [26]): Active; Activity [27]: Non-toxic
8 | H-RLRLRLRLRLRL-OH | 1.9 | 30.6 | 15.3 | 3.8 | 3.8 | 15.3 | 15.3 | – | 15.99 | 0.279 | – | – | – | – | – | – | – | – | – | – | hemolysis at 40 min, 100 µM [28]: 17%
9 | H-RLRLRLRLRLRLRL-OH | 3.3 | 26.2 | 13.1 | 3.3 | 3.3 | 13.1 | 13.1 | – | 16.72 | 0.249 | – | – | – | – | – | – | – | – | – | – | hemolysis at 40 min, 100 µM [28]: 20%
10 | H-RLVRLVRLVRLV-OH | 4.2 | 8.4 | 8.4 | 4.2 | 2.1 | 4.2 | 4.2 | 5 | 19.25 | 2 | 8.4 | 16.8 | 8.4 | 16.8 | 75 | 75 | Active | Active | Active | Active | Activity (Escherichia coli [19]): Active; Activity (Staphylococcus aureus [20]): Active; Activity (Escherichia coli [25]): Active; Activity (Staphylococcus aureus [26]): Active; Activity [27]: Non-toxic; Activity (Escherichia coli [32]): Active; Activity (Staphylococcus aureus [33]): Active
